{
  "source": "patent US7482008B1",
  "about": "“Human T cell reactive feline protein (TRFP) isolated from house dust and uses therefor” (Merck Patent GmbH, priority 1989, dated 2009)",
  "key": {"human IgE": {"system": "human IgE", "assay": "SDS/PAGE Western immunoblot of human IgE binding, plasma from patient #417", "conditions": "patient #417 plasma", "experimental": "Western immunoblot analysis of the peptides produced in above was performed. The concentration of all protein samples (e.g., TRFP, recombinant chain 1 of TRFP, recombinant chain 2 of TRFP, peptide XYZ, peptide XZY, peptide YXZ, peptide YZX, peptide ZXY and peptide ZYX) for gel electrophoresis was determined by the BCA method (Pierce Co.). All protein samples were loaded on the gel at 5 μg/lane except TRFP at 10 μg/lane. Protein separation was carried out on a 15% acrylamide gel, and transfer was performed by electroblotting at 1.5 Amps for 1.5 hours onto nitrocellulose paper (Schleicher and Schuell, 0.1 microns) in a Hoeffer apparatus according to the protocol of Towbin, H., T. Stachlin, and J. Gordon, PNAS 76:4350 (1979). Proteins were rinsed in blot solution (25 mM Tris-HCl 7.5, 0.171 M NaCl and 0.5 ml/liter Tween 20). The blot was then blocked for one hour in blocking solution (1% milk in blot solution). Plasma from patient #417, used as a primary antibody source, was diluted in blocking solution to 10% and preabsorbed for 1.5 hours with unused nitrocellulose (2 cm×15 cm). The prepared human plasma was then incubated overnight on an orbital shaker with the protein blot section of interest. Following the first antibody incubation the blot section was washed three times, each wash involved a fifteen minute incubation in blot solution. The second antibody, specific for human IgE (biotinylated goat anti-human IgE, KPL Inc.), was diluted 1:2500 in blot solution and the incubation proceeded for two hours. Excess second antibody was subsequently removed by three 15 minute incubations with blot solution. ^125I Iodinated streptavidin (Amersham) was diluted 1:2500 in blot solution and incubated with blots for 1 hour, at 2 μCi in a 50 ml incubation volume. Blot sections were then washed with blot solution until the detectable radioactivity in the waste solution decreased to background levels. The blot section was then wrapped in saran wrap and exposed to film overnight with a cronex intensifying screen at −80° C."}, "[1]": {"system": "Patient 155 TRFP secondary primed T cells", "assay": "In vitro induction of T cell non-responsiveness, then proliferation on antigenic challenge", "assay_type": "cell-based, human", "conditions": "label = tolerance treatment", "experimental": "Patient 155 TRFP secondary primed T cells (2.5×10^6) were rested and cultured with (2.5×10^6) irradiated autologous Epstein Barr Virus transformed B cells (EBV) in 1 ml of complete RPMI with 10% AB serum in 12×75 mm polypropylene snap cap tubes and increasing amounts of antigen over 5 consecutive days. The T cell cultures were exposed to 5 μg/ml purified native TRFP on day 0 and 5 μg/ml, 10 μg/ml, 10 μg/ml and 20 μg/ml thereafter. The peptide treated cultures were exposed to 1 μg/ml peptide on day 0 and 1 μg/ml, 1 μg/ml, 2 μg/ml and 5 μg/ml thereafter. In addition, 0.5 ml of fresh media was replaced on day 2. The cells were then washed and set up for a proliferation assay with 2×10^4 T cells and 2×10^4 irradiated (2500 Rad) autologous EBV and various doses of antigen. T cell proliferation was measured as incorporation of tritiated thymidine at day 9."}, "[2]": {"system": "Human T cell lines from four cat allergic patients", "assay": "IL-2 and IL-4 production by TRFP-primed T cell lines of four cat allergic patients", "assay_type": "cell-based", "conditions": "panel of four patients 688, 730, 738, 807", "experimental": "Human T cell lines from four cat allergic patients (patients 688, 730, 738, and 807) were isolated. Heparinized peripheral blood specimens were obtained from cat allergic patients and the mononuclear cell fraction was purified by Ficoll-Hypaque centrifugation. An aliquot of these cells (2×10^6) was stimulated in vitro with purified native TRFP (10 μg/ml) and grown in the presence of recombinant IL-2 and IL-4. The T cell line was then rested in culture until ready for secondary proliferation assay. Two×10^4 cells were cultured in 200 μl medium containing various concentrations of test antigens with 5×10^4 γ-irradiated autologous Epstein-Barr Virus transformed cells as antigen presenting cells. After 3 days of culture, each microwell was pulsed overnight with 1 μCurie tritiated thymidine, and the amount of radioactivity incorporated was measured by liquid scintillation counting. The stimulation index (S.I.) for each antigen was then calculated. […] The IL-2 in the medium was measured by proliferation of the IL-2 dependent T cell line, […]. […] IL-4 was measured by an ELISA purchased from R&D Systems, Minneapolis, Minn. […] The stimulation indices for IL-2 and IL-4 production were calculated by dividing the amount of IL-2 or IL-4 contained in the medium from stimulated T cells divided by the amount of IL-2 or IL04 released by non-stimulated T cells."}},
  "data": [
    {"substance": "recombinant chain 1: recombinant TRFP chain 1 expressed in E. coli", "values": [
      {"measurement": "IgE binding, Western immunoblot", "setting": "human IgE", "value": "strong IgE binding"}
    ]},
    {"substance": "TRFP: human T cell reactive feline protein affinity purified from house dust; two covalently linked chains", "values": [
      {"measurement": "T cell proliferation following antigenic challenge", "setting": "[1]; challenge with Fel 8-3", "value": "36,030 cmp"},
      {"measurement": "T cell proliferation following antigenic challenge", "setting": "[1]; challenge with Ragweed Peptide", "value": "6,670 cmp"},
      {"measurement": "T cell proliferation following antigenic challenge", "setting": "[1]; challenge with TRFP", "value": "33,160 cmp"},
      {"measurement": "T cell proliferation following antigenic challenge", "setting": "[1]; no antigenic challenge (—)", "value": "2,190 cmp"},
      {"measurement": "IL-4 versus IL-2 production", "setting": "[2]", "value": "favors IL-4 as opposed to IL-2"},
      {"measurement": "IgE binding, Western immunoblot", "setting": "human IgE", "value": "reactivity"}
    ]},
    {"substance": "NARILKNCVDAKMTEEDKE [Fel 4, TRFP chain 1 amino acids 37-55]", "values": [
      {"measurement": "IL-4 versus IL-2 production", "setting": "[2]", "value": "induces more IL-4 than IL-2"}
    ]},
    {"substance": "peptide X: amino acid residues 7-30 from chain 1 of TRFP (SEQ. ID. NO: 17); Table 2 lists Fel 8-3 as 7-33 (KRDVDLFLTGTPDEYVEQVAQYKALPV)", "values": [
      {"measurement": "T cell proliferation following antigenic challenge", "setting": "[1]; challenge with Fel 8-3", "value": "3,850 cmp"},
      {"measurement": "T cell proliferation following antigenic challenge", "setting": "[1]; challenge with Ragweed Peptide", "value": "5,130 cmp"},
      {"measurement": "T cell proliferation following antigenic challenge", "setting": "[1]; challenge with TRFP", "value": "12,320 cmp"},
      {"measurement": "T cell proliferation following antigenic challenge", "setting": "[1]; no antigenic challenge (—)", "value": "1,270 cmp"}
    ]}
  ]
}
